Source: EPA's ToxValDB 9.5 (doi:10.2903/j.efsa.2006.89r)
Values after ≈ are worked out from the molar mass of the structure shown.

Columns and labels:
[1] = tested on: Anas platyrhynchos; settings: oral, mortality
[2] = tested on: Apis mellifera; settings: acute; duration: 48 hours; dermal; mortality
[3] = tested on: Bibionidae; settings: chronic/long-term; duration: 28 days
[4] = tested on: Canidae; settings: oral, Dog Other, clinical signs
[5] = tested on: Colinus virginianus; settings: reproduction developmental
[6] = tested on: Daphnia magna; settings: acute; duration: 48 hours; mortality
[7] = tested on: Lepomis macrochirus; settings: acute; duration: 96 hours; mortality
[8] = tested on: Rattus norvegicus

Structure (SMILES): CCOC(=O)CCN(SN(C)C(=O)Oc1cccc2c1OC(C)(C)C2)C(C)C [Benfuracarb]
- LD50 ([1]; acute, unspecified): 19.8 mg/kg
- LC50 ([1]; short-term, feed): 15 mg/kg-day
- LD50 [2]: 0.19 µg/piece
- NOEC [3]: 0.001 mg/L
- NOAEL ([4]; chronic, duration: 2 years): 2.5 mg/kg-day
- NOAEL ([4]; chronic, duration: 6 months): 2.5 mg/kg-day
- NOAEL ([4]; subchronic, duration: 13 weeks): 0.625 mg/kg-day
- NOEC [5]: 8.93 mg/kg-day
- LC50 [6]: 9.9 ng/mL (≈ 0.0241 µM)
- LC50 [7]: 0.017 mg/L (≈ 0.0414 µM)
- LD50 ([8]; acute, oral, mortality): 205 mg/kg
- NOAEL ([8]; reproduction developmental, reproduction): 1.2 mg/kg-day
- NOAEL ([8]; short-term, duration: 28 days, clinical chemistry): 1.8 mg/kg-day
